Measured values as given in patent US9206193B2, “Substituted norindenoisoquinolines, syntheses thereof, and methods of use” (PURDUE RESEARCH FOUNDATION, priority 2010, dated 2015).
Like-named read-outs stand apart in the source and are kept apart here.

What was measured:
[1] = molecular target: T1, Human recombinant Top1 (Homo sapiens, UniProt P11387); test: Topoisomerase I-mediated DNA cleavage reactions; format: biochemical; design: key to Top1 cleavage: 0: no activity; +: weak activity; ++: similar activity as CPT; +++ and ++++: greater activity than CPT; ++++: similar activity as 1 uM CPT; details: for Top1 cleavage: semiquantitative, relative to 1 uM CPT, concentrations ranging up to 10 uM
T1 construct: made in house
T1 sequence (P11387 1-765): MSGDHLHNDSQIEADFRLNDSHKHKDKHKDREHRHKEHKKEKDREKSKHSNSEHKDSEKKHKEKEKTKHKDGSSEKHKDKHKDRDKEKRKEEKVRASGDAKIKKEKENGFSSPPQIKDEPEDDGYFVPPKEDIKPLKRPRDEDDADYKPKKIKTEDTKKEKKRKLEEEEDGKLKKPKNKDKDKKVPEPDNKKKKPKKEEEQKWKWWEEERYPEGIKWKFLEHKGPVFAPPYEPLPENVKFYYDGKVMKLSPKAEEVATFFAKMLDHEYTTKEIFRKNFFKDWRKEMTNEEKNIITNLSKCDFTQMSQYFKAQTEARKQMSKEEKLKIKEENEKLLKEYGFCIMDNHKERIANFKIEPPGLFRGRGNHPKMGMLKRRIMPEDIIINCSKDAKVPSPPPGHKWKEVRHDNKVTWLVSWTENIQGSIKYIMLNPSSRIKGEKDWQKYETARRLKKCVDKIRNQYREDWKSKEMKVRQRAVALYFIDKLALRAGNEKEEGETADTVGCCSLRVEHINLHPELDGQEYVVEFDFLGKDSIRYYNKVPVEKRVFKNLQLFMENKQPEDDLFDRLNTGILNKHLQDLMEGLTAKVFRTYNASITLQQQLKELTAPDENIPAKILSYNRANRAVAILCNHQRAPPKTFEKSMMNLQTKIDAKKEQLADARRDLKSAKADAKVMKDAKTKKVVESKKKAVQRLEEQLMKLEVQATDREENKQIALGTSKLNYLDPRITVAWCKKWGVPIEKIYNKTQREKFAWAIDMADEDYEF
Procedure: Norindenoisoquinolines 14a-f are examined for induction of Top1-mediated DNA cleavage using a 117-bp DNA oligonucleotide encompassing the previously identified Top1 cleavage sites in the 161-bp fragment from pBluescript SK(−) phagemid DNA (Dexheimer & Pommier DNA Cleavage Assay for the Identification of Topoisomerase I Inhibitors. Nat. Protocol. 2008, 3, 1736-1750).
Human recombinant Top1 was purified from baculovirus as previously described.^46 DNA cleavage reactions were prepared as previously reported with the exception of the DNA substrate.^13 Briefly, a 117-bp DNA oligonucleotide (Integrated DNA Technologies) encompassing the previously identified Top1 cleavage sites in the 161-bp fragment from pBluescript SK(−) phagemid DNA was employed. This 117-bp oligonucleotide contains a single 5′-cytosine overhang, which was 3′-end labeled by fill-in reaction with [α-^32P]-dGTP in React 2 buffer (50 mM Tris-HCl, pH 8.0, […], 50 mM NaCl) with 0.5 units of DNA polymerase I (Klenow fragment, New England BioLabs). Unincorporated ^32P-dGTP was removed using mini Quick Spin DNA columns (Roche, Indianapolis, Ind.), and the eluate containing the 3′-end-labeled DNA substrate was collected. Approximately 2 nM of radiolabeled DNA substrate was incubated with recombinant Top1 in 20 μL of reaction buffer [10 mM Tris-HCl (pH 7.5), 50 mM KCl, 5 mM MgCl2, 0.1 mM EDTA, and 15 μg/ml BSA] at 25° C. for 20 min in the presence of various concentrations of compounds. The reactions were terminated by adding SDS (0.5% final concentration) followed by the addition of two volumes of loading dye (80% formamide, 10 mM sodium hydroxide, 1 mM sodium EDTA, 0.1% xylene cyanol, and 0.1% bromphenol blue). Aliquots of each reaction were subjected to 20% denaturing PAGE. Gels were dried and visualized by using a Phosphoimager and ImageQuant software (Molecular Dynamics). For simplicity, cleavage sites were numbered as previously described in the 161-bp fragment.

[2] = tested on: all human cancer cell lines successfully tested; test: NCI DTP antiproliferative screen, mean graph midpoint; format: cell-based; details: average GI50 of all cell lines tested; values outside 10^-8 to 10^-4 M taken as the limits
Procedure: (§1) The norindenoisoquinolines are examined for antiproliferative activity in the National Cancer Institute's Developmental Therapeutics Program (DTP) (Boyd & Paull, Some Practical Considerations and Applications of the National Cancer Institute In Vitro Anticancer Drug Discovery Screen. Drug Development Res. 1995, 34, 91-109; Shoemaker, The NCI60 Human Tumour Cell Line Anticancer Drug screen. Nat. Rev. Cancer 2006, 6, 813-823). Each compound is evaluated against approximately 55 human cell lines representing leukemia, melanoma, and cancers of the lung, colon, brain, breast, ovary, prostate and kidney. After an initial one-dose assay at a single high dose (10^−5 M), only compounds that satisfy the pre-determined threshold inhibition criteria are selected for further 5-dose assay.

[3] = tested on: HCT-116; test: NCI DTP antiproliferative screen, colon HCT-116; format: cell-based, human
Procedure: as §1

[4] = tested on: MDA-MB-435; test: NCI DTP antiproliferative screen, breast MDA-MB-435; format: cell-based; details: Homo sapiens
Procedure: as §1

[5] = tested on: UACC-62; test: NCI DTP antiproliferative screen, melanoma UACC-62; format: cell-based, human
Procedure: as §1

[6] = tested on: OVCAR-3; test: NCI DTP antiproliferative screen, ovarian OVCAR-3; format: cell-based, human
Procedure: as §1

[7] = tested on: DU-145; test: NCI DTP antiproliferative screen, prostate DU-145; format: cell-based, human
Procedure: as §1

[8] = tested on: HOP-62; test: NCI DTP antiproliferative screen, lung HOP-62; format: cell-based, human
Procedure: as §1

[9] = tested on: SN12C; test: NCI DTP antiproliferative screen, renal SN12C; format: cell-based, human
Procedure: as §1

[10] = tested on: SF-539; test: NCI DTP antiproliferative screen, CNS SF-539; format: cell-based, human
Procedure: as §1

[11] = 117-bp DNA substrate, gel of FIG. 2
[12] = Homo sapiens, HCT-116, read-out: Cytotoxicity GI50 Colon HCT-116
[13] = MDA-MB-435, read-out: Cytotoxicity GI50 Breast MDA-MB-435
[14] = Homo sapiens, UACC-62, read-out: Cytotoxicity GI50 Melanoma UACC-62
[15] = Homo sapiens, OVCAR-3, read-out: Cytotoxicity GI50 Ovarian OVCAR-3
[16] = Homo sapiens, DU-145, read-out: Cytotoxicity GI50 Prostate DU-145
[17] = Homo sapiens, HOP-62, read-out: Cytotoxicity GI50 Lung HOP-62
[18] = Homo sapiens, SN12C, read-out: Cytotoxicity GI50 Renal SN12C
[19] = Homo sapiens, read-out: Cytotoxicity GI50 CNS SF-539

For `COc1cc2c3c(n(CCCNCCO)c(=O)c2cc1OC)-c1cc2c(cc1C3=O)OCO2` [MJ-III-65, reference compound], the “44 (C-G) cleavage site in Top1-mediated DNA cleavage pattern” value (“44 (C-G) cleavage site” for short) [1, 11] was “seen” and the “62 (C-A) cleavage site in Top1-mediated DNA cleavage pattern” value [1, 11] was “observed”.

For `COc1cc2cnc3c(c2cc1OC)Cc1c-3cc2c(c1CN1CCN(C)CC1)OCO2` [Compound 14d, 2,3-Dimethoxy-8,9-methylenedioxy-10-(4-methylpiperazin-1-yl)methyl-11H-indeno[1,2-c]isoquinoline], the “106 (C-T) cleavage site in Top1-mediated DNA cleavage pattern” value (“106 (C-T) cleavage site” below) [1, 11] was “absent”, the Top1 cleavage [1] was “++” and the melting point was 296 °C (dec.).

With `COc1cc2cnc3c(c2cc1OC)Cc1c-3cc2c(c1CN(C)C)OCO2` [Compound 14a, 2,3-Dimethoxy-8,9-methylenedioxy-10-(dimethylamino)methyl-11H-indeno[1,2-c]isoquinoline] the “MGM (mean graph midpoint for growth inhibition)” value [2] was 4.4 µM, the Top1 cleavage [1] was “+++” and the GI50 [3, 12] was 1.5 µM. For the same compound, the GI50 [4, 13] was 16 µM, the GI50 [5, 14] was 12 µM and the GI50 [6, 15] was 1.4 µM. For the same compound, the GI50 [7, 16] was 1.6 µM, the GI50 [8, 17] was 6.7 µM and the melting point was 205 to 207 °C. For the same compound, the GI50 [9, 18] was 13 µM and the GI50 [10, 19] was 14 µM.

With `COc1cc2cnc3c(c2cc1OC)Cc1cc2c(cc1-3)OCO2` [Compound 5, reference compound] the “44 (C-G) cleavage site” value [1, 11] was “seen”, the “97 (T-A) cleavage site in Top1-mediated DNA cleavage pattern” value [1, 11] was “observed” and the “106 (C-T) cleavage site” value [1, 11] was “observed”.

In the case of `COc1cc2cnc3c(c2cc1OC)Cc1c-3cc2c(c1C)OCO2` [Compound 15, 2,3-Dimethoxy-8,9-methylenedioxy-10-methyl-11H-indeno[1,2-c]isoquinoline], the “MGM (mean graph midpoint for growth inhibition)” value [2] is reported as 11.8 µM, the “44 (C-G) cleavage site” value [1, 11] is reported as “seen” and the “97 (T-A) cleavage site in Top1-mediated DNA cleavage pattern” value [1, 11] is reported as “observed”. The “106 (C-T) cleavage site” value [1, 11] was “observed”, the Top1 cleavage [1] was “++” and the GI50 [3, 12] was 0.89 µM. It also gave a GI50 [4, 13] greater than 100 µM, a GI50 [5, 14] of 0.7 µM and a GI50 [6, 15] of 5.8 µM. The GI50 [7, 16] was greater than 100 µM, the GI50 [8, 17] was 7.3 µM and the melting point was 272 to 274 °C (dec.). It also gave a GI50 [9, 18] greater than 100 µM and a GI50 [10, 19] of 4.6 µM.

With `COc1cc2cnc3c(c2cc1OC)Cc1c-3cc2c(c1CN(C)CCN(C)C)OCO2` [Compound 14f, 2,3-Dimethoxy-8,9-methylenedioxy-10-(N,N,N′-trimethylethylenediamino)methyl-11H-indeno[1,2-c]isoquinoline] the “MGM (mean graph midpoint for growth inhibition)” value [2] was 6.3 µM, the GI50 [3] was 1.9 µM and the GI50 [5] was 0.73 µM. For the same compound, the GI50 [6] was 7.4 µM, the GI50 [7] was 3.4 µM and the GI50 [8] was 1.5 µM. It also gave a GI50 [9] greater than 100 µM and a GI50 [10] of 11 µM.

For `COc1cc2cnc3c(c2cc1OC)Cc1c-3cc2c(c1CN1CCCC1)OCO2` [Compound 14b, 2,3-Dimethoxy-8,9-methylenedioxy-10-(pyrrolidin-1-yl)methyl-11H-indeno[1,2-c]isoquinoline], the “MGM (mean graph midpoint for growth inhibition)” value [2] was 2.3 µM, the Top1 cleavage [1] was “+++” and the GI50 [3, 12] was 0.64 µM. The GI50 [4, 13] was 2.5 µM, the GI50 [5, 14] was 6.7 µM and the GI50 [6, 15] was 0.73 µM. The GI50 [7, 16] was 0.73 µM, the GI50 [8, 17] was 1.2 µM and the melting point was 210 °C (dec.). The GI50 [9, 18] was 4.4 µM and the GI50 [10, 19] was 1.9 µM.

For `COc1cc2cnc3c(c2cc1OC)Cc1c-3cc2c(c1CN1CCOCC1)OCO2` [Compound 14e, 2,3-Dimethoxy-8,9-methylenedioxy-10-(4-morpholino)methyl-11H-indeno[1,2-c]isoquinoline], the “MGM (mean graph midpoint for growth inhibition)” value [2] was 2.4 µM, the “106 (C-T) cleavage site” value [1, 11] was “absent” and the Top1 cleavage [1] was “+”. It also gave a GI50 [3] of 1.4 µM, a GI50 [5] of no less than 100 µM and a GI50 [6] of 1.7 µM. The GI50 [7] was 1.9 µM, the GI50 [8] was 2.1 µM and the GI50 [9] was 2.3 µM. For the same compound, the GI50 [10] was 1.8 µM.

With `CC[C@@]1(O)C(=O)OCc2c1cc1n(c2=O)Cc2cc3ccccc3nc2-1` [CPT, camptothecin, reference compound] the “MGM (mean graph midpoint for growth inhibition)” value [2] was 0.0405 µM, the “37 (T-G) cleavage site in Top1-mediated DNA cleavage pattern” value [1, 11] was “observed” and the “44 (C-G) cleavage site” value [1, 11] was “not”. The Top1 cleavage [1] was “++++”, the GI50 ([3]; Homo sapiens, HCT-116, Table 2, read-out: Cytotoxicity GI50 Colon HCT-116) was 0.03 µM and the GI50 ([4]; MDA-MB-435, Table 2, read-out: Cytotoxicity GI50 Breast MDA-MB-435) was 0.04 µM. For the same compound, the GI50 ([5]; Homo sapiens, UACC-62, Table 2, read-out: Cytotoxicity GI50 Melanoma UACC-62) was 0.01 µM, the GI50 ([7]; Homo sapiens, DU-145, Table 2, read-out: Cytotoxicity GI50 Prostate DU-145) was 0.01 µM and the GI50 ([8]; Homo sapiens, HOP-62, Table 2, read-out: Cytotoxicity GI50 Lung HOP-62) was 0.01 µM. The GI50 ([9]; Homo sapiens, SN12C, Table 2, read-out: Cytotoxicity GI50 Renal SN12C) was 0.02 µM and the GI50 ([10]; Homo sapiens, Table 2, read-out: Cytotoxicity GI50 CNS SF-539) was 0.01 µM.
